Measurements reported in US11607423B2, “Combination of a cannabinoid and a chemotheraopeutic agent for the treatment of breast cancer” (Akos Biosciences, Inc., priority 2018, dated 2023).

Key:
[1] = system: breast cancer cell line MCF7; assay: MCF7 cell viability by cell counting with trypan blue after 48 h; type: cell-based; details: CBD 0.1, 1 or 10 μM, FIG. 1
Description: The breast cancer cell line MCF7, growing exponentially, was reset at a concentration of 1×10^4/ml and allowed to adhere overnight.

pERK = pERK level by western blotting in MCF7 cells, relative to GAPDH loading control; type: cell-based; details: CBD 100 nM, 1 μM or 10 μM, 48 h, band density relative to GAPDH, 5 separate experiments, FIG. 2
Protocol: The breast cancer cell line MCF7, growing exponentially, was reset at a concentration of 1×10^4/ml and allowed to adhere overnight. Cannabidiol (CBD) was added at 100 nM, 1 μM, or 10 μM, and cells were harvested for standard western blotting techniques after 48 h. Immunoprobing was performed using anti-pERK antibodies, and the densities of each band determined. These values were then expressed relative to a GAPDH loading control.

Structure (SMILES): C=C(C)[C@@H]1CCC(C)=C[C@H]1c1c(O)cc(CCCCC)cc1O [CBD, cannabidiol]
- viability of cancer cells [1]: unaffected
- pERK relative to controls (pERK): increased
